Assay results from article PMC3907537, “Evaluation of the Endothelin Receptor Antagonists Ambrisentan, Bosentan, Macitentan, and Sitaxsentan as Hepatobiliary Transporter Inhibitors and Substrates in Sandwich-Cultured Human Hepatocytes” (PLoS ONE, 2014).

What was measured:
Type in all cases: cell-based
[1] = test system: sandwich-cultured human hepatocytes; experiment: Effect of ERAs on endogenous glycocholic acid (GCA) distribution in sandwich-cultured human hepatocytes; conditions: 24 h, mean ± standard error, n=3 human livers
Procedure: (§1) Sandwich-cultured human hepatocytes were obtained from Celsis/IVT (Baltimore, MD) or Life Technologies (Durham, NC). Donors were male (n = 3) and female (n = 1) between the ages of 31 and 62 years old. Hepatic uptake, biliary excretion and in vitro biliary clearance (Clb) were determined using the B-CLEAR® hepatocyte sandwich culture model as described by Liu et al., 1999 [34]. In this system, hepatocytes form functional bile canalicular networks while maintaining the expression and function of key uptake and efflux transporters. The canalicular system of bile pockets remains separate from the cellular culture media due to tight junctions between cells. The integrity of these tight junctions is maintained in the presence of calcium (Plus (+) buffer) while in the absence of calcium (Minus (−) buffer), these tight junctions open and release the contents of the canalicular network into the media.
(§2) Incubation solutions containing ERA (1, 10 and 100 µM) were prepared in cell culture medium. On the sixth day of culturing of the sandwich-cultured hepatocytes, cell culture medium was removed from the wells and incubation solutions containing the test ERAs were added to the cells. The cells were incubated with ERA solution for 24 h at 37°C. After the exposure, the incubation solutions were removed and the cells were rinsed with Plus (+) or Minus (−) buffer. The buffer solutions were then removed and the cells were incubated with fresh Plus (+) or Minus (−) buffer for 5 min at 37°C. Following this 5 minute incubation, the buffer solutions were collected and any remaining buffers were removed. The cells were then washed three times with ice-cold Plus (+) buffer and the plates were frozen at −80°C until processed for bioanalysis.
(§3) Study samples were stored in their original 24-well plates at −80°C until prepared for analysis. A volume of 500 µL of cell lysis solution (70∶30 methanol:water) containing 25 nM internal standard was added to each well and mixed for 20 min of mixing. The volume in each well was then transferred to a 96-well filter plate stacked on a Greiner deep well collection plate. The filter plate/collection plate was then centrifuged at 2000 rcf for 5 min. The filtrate was then evaporated to dryness under nitrogen. Samples were reconstituted in 200 µL of sample diluent (60∶40 methanol:10 mM ammonium acetate, native pH), sealed, and placed on a plate shaker for 15 min. These samples were then transferred to a Whatman 96-well 0.45 µm PVDF filter plate stacked on a Costar 3956 plate (HPLC injection plate), centrifuged at 2000 rcf for 2–3 min, and sealed with a silicon cap mat prior to LC-MS/MS analysis. d8-TCA standard spiking solutions were prepared in 50∶50 methanol:water. For a given lysate standard or control, 10 µL was added to each well of a previously frozen analytical plate. Standards representing 0.5–100 pmoles/well and QC’s at the LLQ and ULQ were prepared. These lysate standards and controls were then further processed as described above for unknown study samples. Prepared samples were filtered and analyzed by LC-MS/MS using a Shimadzu binary HPLC system (Columbia, MD) and tandem mass spectrometry using Thermo Electron TSQ® Quantum Discovery MAX™ (Waltham, MA) with an Ion Max ESI source operating in negative ion electrospray ionization mode. Results for unknowns and QCs were calculated using a standard curve based on an internal standard processing method.
(§4) Statistical comparisons across ERA treatments were performed using analysis of variance (ANOVA) with Fisher’s PLSD post hoc analysis (Statview 5.0, SAS Institute, Cary NC); statistical significance was considered to be P<0.05. All mass values were normalized to mg protein by taking the average protein mass in the taurocholate plate determined using a BCA protein assay (Pierce Biotechnology, Rockford, IL). […]

[2] = test system: sandwich-cultured human hepatocytes; experiment: Effect of ERAs on endogenous glycochenodeoxycholic acid (GCDCA) distribution in sandwich-cultured human hepatocytes; conditions: 24 h, mean ± standard error, n=3 human livers
Procedure: as §1, with “Donors were male (n = 3) and female (n = 1) between the ages of 31 and 62 years old.” left out
as §2, §3
as §4, with “IL). Cellular accumulation determined in Minus (−) buffer (Accumulation Minus (−) Buffer) represents the total mass of analyte inside the hepatocyte at the end of the incubation time period.” for “IL).”

[3] = test system: sandwich-cultured human hepatocytes; experiment: ERA effect on hepatobiliary disposition of d8-taurocholate (B-CLEAR sandwich culture); conditions: n = 3 donors; for d8-TCA cellular accumulation (% control) / d8-TCA total accumulation (% control): 2.5 µM d8-TCA, 10 min
Procedure: as §1
A dose solution containing 2.5 µM d8-taurocholic acid (d8-TCA) was prepared in Plus (+) Buffer. Co-incubation solutions were prepared by combining d8-TCA dose solution and ERA or rifamycin-SV. Hepatocytes were washed and then conditioned for 10 min in warm Plus (+) or Minus (−) buffer with and without ERA or rifamycin-SV. Pre-incubation solutions were then removed and replaced with dose or co-incubation solutions and incubated for 10 min at 37°C. Following this 10 minute incubation, the dose or co-incubation solutions were removed and the cells were then washed three times with ice-cold Plus (+) buffer. The plates were then frozen at −80°C until processed for bioanalysis.
as §3
as §4, with “Data calculations were performed using Microsoft Excel, 2010 with all values reported as mean ± standard deviation (SD). Statistical” for “Statistical”, “IL). Cellular accumulation determined in Minus (−) buffer (Accumulation Minus (−) Buffer) represents the total mass of analyte inside the hepatocyte at the end of the incubation time period.” for “IL).”

Structure (SMILES)	GCA BEI (% Control) ([1]; 1 µM)	GCA Cellular Accumulation (% Control) ([1]; 1 µM)	GCA Medium Concentration (% Control) ([1]; 1 µM)	GCA Total Accumulation (% Control) ([1]; 1 µM)	GCA BEI (% Control) ([1]; 10 µM)	GCA Cellular Accumulation (% Control) ([1]; 10 µM)	GCA Medium Concentration (% Control) ([1]; 10 µM)	GCA Total Accumulation (% Control) ([1]; 10 µM)	GCA BEI (% Control) ([1]; 100 µM)	GCA Cellular Accumulation (% Control) ([1]; 100 µM)	GCA Medium Concentration (% Control) ([1]; 100 µM)	GCA Total Accumulation (% Control) ([1]; 100 µM)	GCDCA BEI (% Control) ([2]; 1 µM)	GCDCA Cellular Accumulation (% Control) ([2]; 1 µM)	GCDCA Medium Concentration (% Control) ([2]; 1 µM)	GCDCA Total Accumulation (% Control) ([2]; 1 µM)	GCDCA BEI (% Control) ([2]; 10 µM)	GCDCA Cellular Accumulation (% Control) ([2]; 10 µM)	GCDCA Medium Concentration (% Control) ([2]; 10 µM)	GCDCA Total Accumulation (% Control) ([2]; 10 µM)	other results
Cc1cc2c(cc1CC(=O)c1sccc1S(=O)(=O)Nc1onc(C)c1Cl)OCO2 [sitaxsentan]	100.0 ± 18.3	90.9 ± 6.5	104.0 ± 8.1	98.6 ± 16.1	84.2 ± 6.0	69.8 ± 11.1	92.8 ± 3.8	60.3 ± 7.2	61.7 ± 12.2	18.6 ± 6.9	75.0 ± 3.5	14.4 ± 5.4	112.0 ± 19.8	89.8 ± 10.8	110.0 ± 9.2	99.3 ± 11.0	85.7 ± 8.4	79.4 ± 12.4	105.0 ± 11.9	73.8 ± 10.5	GCDCA BEI (% Control) ([2]; 100 µM): 55.5 ± 34.3 % Control; GCDCA Cellular Accumulation (% Control) ([2]; 100 µM): 14.5 ± 2.7 % Control; GCDCA Medium Concentration (% Control) ([2]; 100 µM): 76.5 ± 8.3 % Control; GCDCA Total Accumulation (% Control) ([2]; 100 µM): 12.4 ± 3.0 % Control
COc1ccccc1Oc1c(NS(=O)(=O)c2ccc(C(C)(C)C)cc2)nc(-c2ncccn2)nc1OCCO [bosentan]	85.9 ± 12.6	78.4 ± 14.5	99.6 ± 2.1	71.9 ± 12.9	32.3 ± 30.1	55.1 ± 14.4	85.5 ± 6.3	35.9 ± 5.3	35.4 ± 13.9	25.6 ± 8.4	77.1 ± 10.1	17.4 ± 6.1	94.5 ± 12.4	88.0 ± 5.9	114.0 ± 9.9	86.8 ± 3.5	65.7 ± 21.7	54.8 ± 4.4	109.0 ± 14.7	47.2 ± 2.3	d8-TCA cellular accumulation (% control) ([3]; 11 µM ERA): 66.5±5.3%; d8-TCA total accumulation (% control) ([3]; 11 µM ERA): 68.6±1.5%; d8-TCA in vitro biliary clearance (Clb), percent of control ([3]; 11 µM ERA): 69.2±0.1%; d8-TCA total accumulation (% control) ([3]; 33 µM ERA): 62.6±6.6%; d8-TCA in vitro biliary clearance (Clb), percent of control ([3]; 33 µM ERA): 58.7±11.4%; d8-TCA cellular accumulation (% control) ([3]; 100 µM ERA): 44.5±3.6%; d8-TCA total accumulation (% control) ([3]; 100 µM ERA): 31.7±5.9%; d8-TCA biliary efflux (BEI), percent of control ([3]; 100 µM ERA): 85.2±13.9%; d8-TCA in vitro biliary clearance (Clb), percent of control ([3]; 100 µM ERA): 27.0±9.3%; GCDCA BEI (% Control) ([2]; 100 µM): 56.8 ± 11.9 % Control; GCDCA Cellular Accumulation (% Control) ([2]; 100 µM): 30.3 ± 6.7 % Control; GCDCA Medium Concentration (% Control) ([2]; 100 µM): 126.0 ± 7.9 % Control; GCDCA Total Accumulation (% Control) ([2]; 100 µM): 25.4 ± 6.0 % Control
COC(c1ccccc1)(c1ccccc1)[C@H](Oc1nc(C)cc(C)n1)C(=O)O [ambrisentan]	90.3 ± 13.5	93.0 ± 9.3	101.0 ± 3.5	87.2 ± 10.8	75.4 ± 8.6	88.2 ± 15.5	91.3 ± 7.5	73.0 ± 8.4	65.9 ± 6.8	48.8 ± 10.8	95.7 ± 6.7	39.1 ± 11.9	95.1 ± 16.3	104.0 ± 3.0	110.0 ± 7.6	103.0 ± 8.1	81.3 ± 11.0	83.6 ± 11.6	109.0 ± 16.0	75.7 ± 8.0	d8-TCA cellular accumulation (% control) ([3]; 33 µM ERA): 71%; d8-TCA cellular accumulation (% control) ([3]; 100 µM ERA): 52%; GCDCA BEI (% Control) ([2]; 100 µM): 76.0 ± 38.1 % Control; GCDCA Cellular Accumulation (% Control) ([2]; 100 µM): 27.6 ± 3.4 % Control; GCDCA Medium Concentration (% Control) ([2]; 100 µM): 103.0 ± 2.3 % Control; GCDCA Total Accumulation (% Control) ([2]; 100 µM): 26.3 ± 5.7 % Control
